Data as given in patent publication US7572770B2, “Use of an interleukin 1 receptor antagonist and/or pyrrolidinedithiocarbamate for the treatment or prophylaxis of type 2 diabetes” (University of Zurich, priority 2002, dated 2009).

System: Fas
Experiment: Fas expression in human islets (Western blot, RT-PCR, immunostaining)
Type: cell-based
Conditions: 33.3 mM glucose with IL-1Ra
Procedure: Western blot analysis. Islets were cultured in a culture medium in non-adherent plastic dishes. One day after isolation, the medium was changed and groups of 200 islets were incubated for 44 hours in culture medium containing 5.5 or 33.3 mM glucose without or with 2 ng/ml IL-1β or 500 ng/ml IL-1Ra. At the end of the incubations, islets were washed in PBS, suspended in 50 μl sample buffer containing 125 mM Tris-HCl, pH 6.8, 4% SDS, 10% glycerol, 0.3% bromphenol blue, 1.8% β-mercaptoethanol and boiled for 5 min. Equivalent amounts of each treatment group were run on 15% SDS polyacrylamide gels. […] Intensity of bands was analyzed using Multianalyst™ (Bio Rad, Laboratories inc., Hercules, Calif.).
RNA extraction, RT-PCR and sequencing of RT-PCR product. […] The conditions of the PCR amplification for IL-1β and Fas were: denaturation 30 seconds at 94° C., annealing 30 seconds at 60° C. and elongation 30 seconds at 72° C., followed for real time PCR by quantification 5 seconds at 80° C., 45 cycles. […] For quantitative analysis, we used the Light Cycler quantitative PCR system (Roche, Basel, Switzerland) and performed quantitative PCR with a commercial kit (Light Cycler-DNA Master SYBR Green I; Roche). […]

For “Interleukin 1 receptor antagonist [IL-1Ra]”, the “glucose-dependent induction of Fas-receptor protein and mRNA” value was “hindered”.
